The values that follow come from publication PMC8878717, “The Oxime Ethers with Heterocyclic, Alicyclic and Aromatic Moiety as Potential Anti-Cancer Agents” (Molecules, 2022).

The test system of one series is HeLa cells. Kind of series: MTT cytotoxicity test on HeLa cells. In kind it is cell-based, human. Conditions: for cytotoxicity / cell viability of HeLa cells at low concentration: 1–10 μg/mL (1 and 10 μg/mL). As to the method:
Cytotoxic properties of all compounds were determined by 3-(4,5-dimethylthiazol-2-yl)-2,5-diphenyltetrazolium bromide (MTT) test reflecting cell viability. Cytotoxicity screening of all 27 compounds—2-acetylbenzofuran oxime (6) and its oxime ethers (1–5), as well as: 2-acetylthiophene (7–17), cyclohexanone (18–20), acetophenone (21–23), thiazole (24–25), benzothiazole (26–27) oxime ethers—was performed in vitro on human cervical adenocarcinoma (HeLa) cells as the representatives of cancerous cells.
(§1) 2-Acetylbenzofuran, 2-acetylbenzothiophene, 2-acetylthiophene, 2-acetylthiazole, cyclohexanone and acetophenone derivatives were used for in vitro cytotoxicity assays with cervical adenocarcinoma (HeLa), human dermal fibroblasts (HDF), lung epithelial carcinoma (A549), and intestinal epithelial carcinoma (Caco-2) cell lines. A549, Caco-2, and HeLa cells were obtained from Sigma-Aldrich (Germany), and HDF from Biokom (Poland). All cell lines were cultured according to the manufacturer’s protocol under sterile conditions in the presence of 4.9% CO2 at 37 °C. A549 cells were grown in F-12 medium containing 10% fetal bovine serum (FBS) and 1% penicillin/streptomycin. HDF cells were grown in DMEM (low glucose, with 2 mM glutamine) medium containing 10% fetal bovine serum (FBS) and 1% penicillin/streptomycin. Caco-2 cells were grown in EMEM medium containing 10% fetal bovine serum (FBS), 1% non-essential amino acids (NEAA) and 1% penicillin/streptomycin. HeLa cells were grown in DMEM (low glucose, with 2 mM glutamine) medium containing 10% fetal bovine serum (FBS) and 1% gentamycin. After thawing, cells were cultured until they reached sub-confluent state. The cells were then detached using 0.25% trypsin solution and seeded into 24-well or 96-well plates (3 × 10^3 cells per well) for further experiments. After 24 h growth, the tested compounds were added to the cell cultures in concentrations of 1, 10, 50, 100 and 250 μg mL^−1, respectively, and incubated for the next 24 h or 72 h. The MTT test, based on the ability to reduce 3-(4,5-dimethylthiazol 2-yl)-2,5-diphenyltetrazolium bromide (MTT) by mitochondrial dehydrogenases, was performed in triplicate to assess cell metabolic activity and viability. The plates were then read spectrophotometrically at a wavelength of 570 nm. The dose-dependence curves were charted directly on x-/y-axes, with the drug dosages on the x-axis and the cell viability (percentage of viable cells) on the y-axis.
In general terms: Tetrazolium assays rely on reduction of a dye to a coloured formazan, in cell work by metabolically active cells.

The subject of another series is A549 cells. The experiment in a line: MTT cytotoxicity test on A549 cells. Conditions: Homo sapiens. It is filed as cell-based. As to the method:
(§2) Therefore, compounds showing the highest cytotoxicity (8, 9, 18, 22, 24–27) were further tested on normal human dermal fibroblasts (HDF), A549, Caco-2, and HeLa cells to compare their activity after 24 h and 72 h culture (Figure 5 and Figure 6).
as §1

Series [1] has as its system human dermal fibroblasts (HDF). The experiment in a line: MTT cytotoxicity test on HDF cells. In kind it is cell-based. Conditions: Homo sapiens, Fibroblast, HDF. On the procedure: as §2, §1
Another series has as its system Caco-2 cells. The experiment in a line: MTT cytotoxicity test on Caco-2 cells. In kind it is cell-based, human. Conditions: Homo sapiens. As to the method: as §2, §1
Series [2] can be described thus: MTT cytotoxicity test on HDF cells. In kind it is cell-based, human. Conditions: human, human dermal fibroblasts (HDF); 100 μg/mL, 24 h exposure. As to the method: as §2, §1
Where [3] appears, read: Homo sapiens, HeLa, 24 h, HeLa, 24 h culture, MTT, read-out: EC50 for HeLa Cells.
[4] abbreviates: A549, 24 h, MTT, read-out: EC50 Value A549 24 h.
The mark [5] stands for this setting: A549, 72 h, MTT, read-out: EC50 Value A549 72 h.
Setting [6] is: 24 h, MTT, read-out: EC50 Value HDF 24 h.
Setting [7] is: 72 h, MTT, read-out: EC50 Value HDF 72 h.
The mark [8] stands for this setting: Homo sapiens, HeLa, 72 h, HeLa, 72 h, MTT, read-out: EC50 Value HeLa 72 h.
[9] abbreviates: Caco-2, 24 h, MTT, read-out: EC50 Value Caco-2 24 h.
Where [10] appears, read: Caco-2, 72 h, MTT, read-out: EC50 Value Caco-2 72 h.

Where “and” joins values, the source holds several entries; their conditions need not be identical. Identical values can stand only once. Like-named read-outs stand apart in the source and are kept apart here.

`CC(=NOCc1ccc(Cl)cc1Cl)c1cc2ccccc2o1` [Compound 1]: the EC50 (commonly the concentration that produces a half-maximal response) in the series with HeLa cells (setting [3]) is > 250 µg/mL and > 750 µM.
On to `CC(=NOCc1ccc(C(F)(F)F)cc1)c1cc2ccccc2o1` [Compound 2], for which, in the series on HeLa cells (setting [3]), the EC50 is > 250 µg/mL and > 750 µM.
Same read-out and setting: with `CC(=NOCc1ccc(Br)cc1)c1cc2ccccc2o1` [Compound 3] the figure was > 250 µg/mL and > 730 µM; with `CC(=NOCc1ccc([N+](=O)[O-])cc1)c1cc2ccccc2o1` [Compound 4], > 250 µg/mL and > 810 µM; with `CC(=NOCc1c(F)cccc1F)c1cc2ccccc2o1` [Compound 5], > 250 µg/mL and > 830 µM.
As for `CC(=NO)c1cc2ccccc2o1` [Compound 6, 2-acetylbenzofuran oxime], the EC50 in the series on HeLa cells (setting [3]) is > 250 µg/mL and > 1.43 mM.
Regarding `CC(=NOCc1ccc(Cl)cc1Cl)c1cccs1` [Compound 7], in the series with HeLa cells (MTT), the “cytotoxicity / cell viability of HeLa cells at low concentration” value (shortened to “cytotoxicity / cell viability”) was “increased cell viability”. For the same compound, in the series on HeLa cells (setting [3]), the EC50 was > 250 µg/mL and > 830 µM.
Turning to `CC(=NOCc1ccc(Br)cc1)c1cccs1` [Compound 8], the concentration giving a half-maximal response (EC50) in the series on A549 cells (setting [4]) was 194 µg/mL and 620 µM; in the series on A549 cells (setting [5]), 228 µg/mL and 740 µM; in series [1] (setting [6]) it was 127 µg/mL and 410 µM; in series [1] (setting [7]) it was 118 µg/mL and 380 µM; in the series on HeLa cells (setting [3]), 610 µM; in the series with HeLa cells (setting [8]), 40 µg/mL and 130 µM. Further, the EC50 with Caco-2 cells (setting [9]) is 230 µg/mL and 740 µM; in the series with Caco-2 cells (setting [10]), 118 µg/mL and 380 µM.
In the case of `CC(=NOCc1ccc([N+](=O)[O-])cc1)c1cccs1` [Compound 9], the EC50 with A549 cells (setting [4]) was 107 µg/mL and 390 µM; in the series on A549 cells (setting [5]), 131 µg/mL and 470 µM; in series [1] (setting [6]), 172 µg/mL and 620 µM; in series [1] (setting [7]), 44.7 µg/mL and 160 µM; with HeLa cells (setting [3]), 460 µM; in the series on HeLa cells (setting [8]), 6.9 µg/mL and 20 µM. For the same compound, the EC50 with Caco-2 cells (setting [9]) was 78 µg/mL and 280 µM; in the series with Caco-2 cells (setting [10]), 105 µg/mL and 380 µM.
Turning to `COc1ccc([N+](=O)[O-])c(CON=C(C)c2cccs2)c1` [Compound 10], the half-maximal effective concentration (EC50) with HeLa cells (setting [3]) is > 250 µg/mL and > 820 µM.
Regarding `CC(=NOCCN(C)C)c1cccs1` [Compound 11], the EC50 in the series on HeLa cells (setting [3]) was > 250 µg/mL and > 1.18 mM.
In the case of `CC(=NOCCN1CCOCC1)c1cccs1` [Compound 12], the “cytotoxicity / cell viability” value in the series on HeLa cells (MTT) is listed as “increased cell viability”. The EC50 with HeLa cells (setting [3]) was > 250 µg/mL and > 980 µM.
`C/C(=N\OCCN)c1cccs1` [Compound 13, (E)-1-(thiophen-2-yl)ethanone O-2-aminoethyl oxime]: in the series with HeLa cells (setting [3]), the EC50 was > 250 µg/mL and > 1.36 mM.
Same read-out and setting: the result for `CCN(CC)CCO/N=C(\C)c1cccs1` [Compound 14, (E)-1-(thiophen-2-yl)ethanone O-2-(diethylamino)ethyl oxime] reads > 250 µg/mL and > 1.04 mM; that for `C/C(=N\OCCCN)c1cccs1` [Compound 15, (E)-1-(thiophen-2-yl)ethanone O-3-aminopropyl oxime], > 250 µg/mL and > 1.1 mM.
For the compound `CC(=NOCCCN(C)C)c1cccs1` [Compound 16], in the series with HeLa cells (MTT), the “cytotoxicity / cell viability” value is “increased cell viability”. Moreover, in the series with HeLa cells (setting [3]), the EC50 was > 250 µg/mL and > 1.1 mM.
In the case of `CC(=NOCC(=O)O)c1cccs1` [Compound 17], the “cytotoxicity / cell viability” value in the series on HeLa cells (MTT) is on record as “increased cell viability”. Further, the EC50 in the series on HeLa cells (setting [3]) was > 250 µg/mL and > 1.25 mM.
Regarding `O=C(O)CON=C1CCCCC1` [Compound 18, 2-(cyclohexylideneaminoxy)acetic acid], the EC50 with A549 cells (setting [4]) was 47.8 µg/mL and 280 µM; with A549 cells (setting [5]), 17.9 µg/mL and 100 µM; in the series with A549 cells (A549, 72 h, read-out: EC50 A549), 90 to 100 µM; in series [1] (setting [6]), 43.7 µg/mL and 260 µM; in series [1] (setting [7]), 14.7 µg/mL and 90 µM; in series [1] (72 h culture, read-out: EC50 HDF), 90 to 100 µM. Also, the EC50 with HeLa cells (setting [3]) is 32.3 µg/mL and 190 µM; in the series on HeLa cells (setting [8]), 4.9 µg/mL and 30 µM; in the series on Caco-2 cells (setting [9]), 44.4 µg/mL and 260 µM; in the series on Caco-2 cells (setting [10]), 17.5 µg/mL and 100 µM; in the series on Caco-2 cells (Caco-2, 72 h, read-out: EC50 Caco-2) it was 90 to 100 µM. In addition, the viability (in general, a per cent measure of how many cells are alive, often set against a control) at 100 µg/mL in the series on A549 cells (A549, 100 μg/mL, 24 h exposure) was roughly 20%; in the series with HeLa cells (Homo sapiens, HeLa, 100 μg/mL, 24 h exposure) it was roughly 20%; with Caco-2 cells (Caco-2, 100 μg/mL, 24 h exposure) it was roughly 20%. This compound also returned a viability at 24 h, 100 μg/mL in series [2] of roughly 20%. In the series on HeLa cells (100–250 μg/mL, MTT), the “viability of HeLa cells (of control)” value is on record as “below 20%”.
Regarding `CN(C)CCON=C1CCCCC1` [Compound 19], in the series with HeLa cells (setting [3]), the EC50 is > 250 µg/mL and > 1.36 mM.
In the case of `C1CCC(=NOCCN2CCOCC2)CC1` [Compound 20], the EC50 in the series on HeLa cells (setting [3]) was > 250 µg/mL and > 1.1 mM.
As for `CC(=NOCCN(C)C)c1ccccc1` [Compound 23], the EC50 in the series on HeLa cells (setting [3]) was 233 µg/mL and 1.13 mM.
`COc1ccc(CO/N=C(\C)c2nccs2)cc1` [Compound 24, (E)-1-(thiazol-2-yl)ethanone O-4-methoxybenzyl oxime]: the concentration giving a half-maximal response (EC50) is > 250 µg/mL and > 950 µM with A549 cells (setting [4]); 35.7 µg/mL and 140 µM in the series on A549 cells (setting [5]); 35.3 µg/mL and 130 µM in series [1] (setting [6]); 30.6 µg/mL and 120 µM in series [1] (setting [7]); 110 µg/mL and 420 µM with HeLa cells (setting [3]); 8.7 µg/mL and 30 µM in the series on HeLa cells (setting [8]). In addition, the EC50 in the series on Caco-2 cells (setting [9]) is > 250 µg/mL and > 950 µM; with Caco-2 cells (setting [10]) it was 69.1 µg/mL and 260 µM.
Regarding `C/C(=N\OCc1ccc(Br)cc1)c1nccs1` [Compound 25, (E)-1-(thiazol-2-yl)ethanone O-4-bromobenzyl oxime], the melting point (as a rule, the temperature of the solid-liquid transition) fell in the range of 67 to 70 °C. The EC50 in the series on A549 cells (setting [4]) was > 250 µg/mL and > 800 µM. The EC50 with A549 cells (setting [5]) was 79.9 µg/mL and 260 µM. The EC50 in series [1] (setting [6]) was 37.9 µg/mL and 120 µM. The EC50 in series [1] (setting [7]) was 25.7 µg/mL and 80 µM. The EC50 in the series on HeLa cells (setting [3]) was 130 µg/mL and 420 µM. Further, the EC50 in the series with HeLa cells (setting [8]) is 47.3 µg/mL and 150 µM. Moreover, in the series on Caco-2 cells (setting [9]), the EC50 is 70.8 µg/mL and 230 µM. Also, the EC50 in the series with Caco-2 cells (setting [10]) is 50.5 µg/mL and 160 µM.
Compound `CC(=NOCc1ccc(Cl)cc1Cl)c1cc2ccccc2s1` [Compound 26, (E)-1-(benzothiophene-2-yl)ethanone O-2,4-dichlorobenzyl oxime] returned a melting point of 113 to 117 °C. In addition, in the series on A549 cells (setting [4]), the EC50 was 199 µg/mL and 570 µM. In addition, the EC50 with A549 cells (setting [5]) is 177 µg/mL and 510 µM. In series [1] (setting [6]), the EC50 was 135 µg/mL and 380 µM. Besides, the EC50 in series [1] (setting [7]) is 25.7 µg/mL and 70 µM. In the series on HeLa cells (setting [3]), the EC50 was 121 µg/mL and 350 µM. Further, the EC50 in the series with HeLa cells (setting [8]) is 8.18 µg/mL and 20 µM. Also, in the series with Caco-2 cells (setting [9]), the EC50 was > 250 µg/mL and > 710 µM. The EC50 in the series on Caco-2 cells (setting [10]) was 50.1 µg/mL and 140 µM.
